Assay results reported in US5101059A, “Amino acid protecting groups” (Research Corporation Technologies, Inc., priority 1989, dated 1992).
Blank lines part the entries; values can stand above or below the compound they belong to.

Legend:
Assay type in all cases: physicochemical
[1] = Solubility of TMS-Fmoc and dichloro-Xmoc derivatives versus Fmoc analogs
Protocol: This latter property is particularly important when peptide synthesis is carried out in solution.

[2] = General statements on cleavage by piperidine or fluoride ion
[3] = Base deblocking of R-Fmoc-aniline by various amines; details: for Time for Complete Deblocking / Time for Complete Scavenging of Dibenzofulvene: room temperature
Protocol: 2. General Procedure for Studying the Base Deblocking of the Urethanes R-Fmoc-aniline (R=TMS, DMPS, DPMS, DT-TMS, TIPS): A solution of urethane (0.05 mmol) in a sample of redistilled base (5 mmol, 100 eq.) was allowed to stand at room temperature. The reaction was monitored periodically by TLC with an eluant consisting of Skelly B--CH2 Cl2 (1:1). No reaction occurred according to the TLC test for urethanes having R=TIPS in the case of any of the bases tested after 24 hours.

[4] = Deblocking of R-Fmoc-aniline by fluoride ion; details: tetra-n-butylammonium chloride 3.0 eq., KF dihydrate 4.1 eq., acetonitrile, room temperature
Protocol: 3. General Procedure for Studying the Deblocking of Urethanes R-Fmoc-aniline (R=TMS, DMPS, DPMS, TIPS, DT-TMS) by Reaction with Fluoride Ion: To a solution of urethane (0.0513 mmol) in 0.7 mL of acetonitrile was added 45 mg (0.154 mmol, 3.0 eq.) of tetra-n-butyl-ammonium chloride and 20 mg (0.213 mmol, 4.1 eq.) of potassium fluoride dihydrate. The mixture was stirred at room temperature, the reaction being monitored by TLC with an eluant consisting of Skelly B--CH2 Cl2 (1:1).

[5] = Deblocking of R-Fmoc-aniline by trifluoroacetic acid; details: room temperature
Excerpt: 1. General Procedure for Studying the stability of R-Fmoc-analine (R=TMS, DMPS, DPMS, DT-TMS, TIPS) in Trifluoroacetic Acid: To a solution of urethane (0.026 mmol) in […].) of trifluoroacetic acid. The mixture was stirred at room temperature and the course of the reaction was monitored by TLC with an eluant consisting of Skelly B--dichloromethane (1:1) to note the time needed for complete deblocking of the urethanes.

[6] = Base deblocking of FM-Fmoc-PCA; details: room temperature
Protocol: A. Base Deblocking of FM-Fmoc-PCA: 1. In Piperidine Solution: To a solution of 24.96 mg of FM-Fmoc-PCA in 0.5 mL of DMF was added 0.5 mL (100 eq.) of piperidine. The mixture was stirred at room temperature. […] 2. In DBN Solution: To a solution of 12.81 mg of FM-Fmoc-PCA in 0.15 mL of DMF was added 0.15 mL (50 eq.) of 1,5-diazabicyclo[4,3,0]nonene-7 (DBN). The mixture was stirred at room temperature. […] 3. In DBU Solution: To a solution of 10.58 mg of FM-Fmoc-PCA in 0.15 mL of DMF was added 0.15 mL (50 eq.) of 1,8-diazabicyclo[5,4,0]undec-7-ene (DBU). The mixture was stirred at room temperature. […] 4. In TBD: To a solution of 18.95 mg of FM-Fmoc-PCA in 0.2 mL of DMF and 0.2 mL of pyridine was added 100 mg (20 eq.) of 1,5,9-triazabicyclo[4,4,0]dec-5-ene (TBD). The mixture was stirred at room temperature.

[7] = Base deblocking and stability of 9-xanthenylmethyl and 9,10-dihydro-9-anthracenylmethyl derivatives; details: room temperature; for time needed to complete the deblocking: DBU 100 eq.; for time needed to complete the deblocking / time for evidence for initiation of the deblocking: DMF; for time for evidence for initiation of the deblocking: piperidine 100 eq.
Protocol: 1. Deblocking of Xmoc-PCA in 1,5,9-Triazabicyclo[4,4,0]dec-5-ene Solution: To a solution of 7.90 mg (0.0216 mmol) of Xmoc-PCA in 0.6 mL of pyridine was added 0.15 g (1.078 mmol 50 eq.) of 1,5,9-triazabicyclo[4,4,0]dec-5-ene (TBD). The mixture was stirred at room temperature and monitored by TLC with an eluant consisting of Skelly B--EtOAc (3:1). Complete deblocking had occurred after 25 minutes.
2. Base Deblocking of 9-Xanthenylmethyl Phenylacetate: a. In Piperdine Solution: To a solution of 13.39 mg of 9-XM-phenylacetate in 1.6 mL of DMF was added 0.4 mL (100 eq.) of piperidine. The mixture was stirred at room temperature. […] In DBU Solution: To a solution of 6.36 mg of 9-XM-phenylacetate in 0.9 mL of DMF was added 0.3 mL of 1,8-diazabicyclo[5,4,0]-undec-7-ene (DBU) (100 eq.). The mixture was stirred at room temperature. […] In TBD Solution: To a solution of 7.91 mg of 9-XM-phenylacetate in 0.3 mL of pyridine was added 100 mg (30 eq.) of 1,5,9-triazabicyclo[4,4,0]dec-5-ene. The mixture was stirred at room temperature.
1. General Procedure for Studying the Stabilities of DHAmoc-PCA, Xmoc-PCA, and DC-Xmoc-PCA in Piperidine Solution To a solution of urethane (0.0294 mmol) in 1.2 mL of DMF was added 0.3 mL (2.94 mmol, 100 eq.) of piperidine. The mixture was stirred at room temperature and monitored by TLC with an eluant consisting of Skelly B--EtOAc (3:1). Evidence for initiation of the deblocking required 2 minutes for DC-Xmoc-PCA, 3.5 hours for Xmoc-PCA, and 7 hours for DHAmoc-PCA.
2. General Procedure for Studying the Deblocking of Xmoc-PCA and DHAmoc-PCA in DBU Solution: To a solution of urethane (0.0324 mmol) in 0.5 mL of DMF was added 0.5 mL (3.24 mmol, 100 eq.) of 1,8-diazabicyclo[5,4,0]undec-7-ene. The mixture was stirred at room temperature and monitored by TLC with the eluant consisting of Skelly B--EtOAc (3:1). The time needed to complete the deblocking was 3.5 hours for Xmoc-PCA, and 6 hours for DHAmoc-PCA.

[8] = Base deblocking of substituted urethanes (U-PCA) by various amines; details: dichloromethane, room temperature
Excerpt: 1. General Procedure for Studying the Base Deblocking of the Urethanes Fmoc-PCA, BTS-Fmoc-PCA, DT-Fmoc-PCA, and TMS-Fmoc-PCA: A mixture of urethane (0.05 mmol) in a solution prepared from an equal volume of base (2.5 mmol, 50 eq.) and dichloromethane was stirred at room temperature. The course of the reaction was monitored by TLC with an eluant consisting of Skelly B--ether (3:1).

[9] = morpholine 50 eq., significant aminodibenzofulvene type adduct formed
[10] = piperidine 50 eq., significant aminodibenzofulvene type adduct formed

solubility compared with Fmoc derivatives [1]: greater solubility than Fmoc derivatives
SMILES: O=C(Nc1ccc(Cl)cc1)OCC1c2cc(Cl)ccc2Oc2ccc(Cl)cc21 [2,7-dichloro analog of Xmoc]
deblocking by / stability to piperidine [2]: deblocked by piperidine as easily as the Fmoc group

SMILES: CC(C)[Si](C(C)C)(C(C)C)C1(COC(=O)Nc2ccccc2)c2ccccc2-c2ccccc21 [derivative F]
cleavage by fluoride ion ([2]; inorganic base, fluoride ion): cleaved by the inorganic base, fluoride ion | deblocking by / stability to piperidine [2]: stable to piperidine

SMILES: C[Si](C)(C)C1(COC(=O)Nc2ccc(Cl)cc2)c2ccccc2-c2ccccc21 [Example 9-TMS-Fmoc]
solubility compared with ordinary Fmoc analogs ([1]; in non-polar solvents): enormously more soluble in non-polar solvents than ordinary Fmoc analogs | deblocking by / stability to piperidine [2]: deblocked by piperidine, although somewhat more slowly than the Fmoc group itself

SMILES: CC(C)[Si](C(C)C)(C(C)C)C1(COC(=O)Nc2ccccc2)c2ccccc2-c2ccccc21 [TIPS, 9-Triisopropylsilyl-9-fluorenylmethyl Carbanilate]
reaction with amine bases (TLC) ([3]; any of the bases tested, 100 eq., 24 hours): no reaction was detected | Time for Complete Deblocking by Fluoride Ion [4]: 1080 min | Time for Complete Deblocking by Trifluoroacetic Acid [5]: 34 min

time at which deblocking had begun ([6]; DBN 50 eq., DMF): ≤ 10 min | Time for Complete Deblocking ([6]; DBN 50 eq., DMF, still not complete): > 24 h | Time for Complete Deblocking ([6]; DBU 50 eq., DMF): 12 h | time at which deblocking had begun ([6]; DBU 50 eq., DMF): ≤ 10 min | start of deblocking ([6]; TBD 20 eq., DMF and pyridine): immediately | time for complete deblocking-scavenging reaction ([6]; TBD 20 eq., DMF and pyridine): 1 h | time at which first deblocking was detected ([6]; piperidine 100 eq., DMF): 12 h
SMILES: O=C(Nc1ccc(Cl)cc1)OCC1(CC2c3ccccc3-c3ccccc32)c2ccccc2-c2ccccc21 [FM-Fmoc-PCA, 9-(9'-Fluorenylmethyl)-9-fluorenylmethyl p-Chlorocarbanilate]

SMILES: C[Si](C)(c1ccccc1)C1(COC(=O)Nc2ccccc2)c2ccccc2-c2ccccc21 [DMPS, 9-Dimethyl(phenyl)silyl-9-fluorenylmethyl Carbanilate]
Time for Complete Deblocking ([3]; morpholine 100 eq.): 0.783 h | Time for Complete Scavenging of Dibenzofulvene ([3]; morpholine 100 eq.): 60 min | Time for Complete Deblocking ([3]; piperidine 100 eq.): 0.667 h | Time for Complete Scavenging of Dibenzofulvene ([3]; piperidine 100 eq.): 220 min | Time for Complete Deblocking ([3]; t-butylamine 100 eq.): 3.5 h | Time for Complete Deblocking by Fluoride Ion [4]: < 2 min | Time for Complete Deblocking by Trifluoroacetic Acid [5]: 480 min

SMILES: C[Si](c1ccccc1)(c1ccccc1)C1(COC(=O)Nc2ccccc2)c2ccccc2-c2ccccc21 [DPMS, 9-Diphenyl(methyl)silyl-9-fluoroenylmethyl Carbanilate]
Time for Complete Deblocking ([3]; morpholine 100 eq.): 0.583 h | Time for Complete Scavenging of Dibenzofulvene ([3]; morpholine 100 eq.): 51 min | Time for Complete Deblocking ([3]; piperidine 100 eq.): 0.467 h | Time for Complete Scavenging of Dibenzofulvene ([3]; piperidine 100 eq.): 150 min | Time for Complete Deblocking ([3]; t-butylamine 100 eq.): 1.5 h | Time for Complete Deblocking by Fluoride Ion [4]: < 2 min | Time for Complete Deblocking by Trifluoroacetic Acid [5]: 1080 min

time needed to complete the deblocking [7]: 6 h | time for evidence for initiation of the deblocking [7]: 7 h
SMILES: O=C(Nc1ccc(Cl)cc1)OCC1c2ccccc2Cc2ccccc21 [DHAmoc-PCA, 3,10-Dihydro-9-anthracenylmethyl p-Chlorocarbanilate]

SMILES: CC(C)(C)c1ccc2c(c1)C(COC(=O)Nc1ccccc1)([Si](C)(C)C)c1cc(C(C)(C)C)ccc1-2 [DT-TMS, 2,7-Di-tert-butyl-9-trimethylsilyl-9-fluorenylmethyl Carbanilate]
Time for Complete Deblocking ([3]; morpholine 100 eq.): 16 h | Time for Complete Scavenging of Dibenzofulvene ([3]; morpholine 100 eq.): 1020 min | Time for Complete Deblocking ([3]; piperidine 100 eq.): 13 h | Time for Complete Scavenging of Dibenzofulvene ([3]; piperidine 100 eq.): 1080 min | Time for Complete Deblocking ([3]; t-butylamine 100 eq.): > 24 h | Time for Complete Deblocking by Fluoride Ion [4]: 10 min | Time for Complete Deblocking by Trifluoroacetic Acid [5]: 50 min

Time for Complete Deblocking ([8]; ethanolamine 50 eq.): 45 min | Time for Complete Scavenging of Dibenzofulvene Analogs ([8]; morpholine 50 eq.): 2.5 hr | Time for Complete Deblocking [8, 9]: 75 min | Time for Complete Scavenging of Dibenzofulvene Analogs ([8]; piperidine 50 eq.): 68 min | Time for Complete Deblocking [8, 10]: < 3 min | Time for Complete Deblocking ([8]; t-butylamine 50 eq.): 300 min
SMILES: O=C(Nc1ccc(Cl)cc1)OCC1c2ccccc2-c2ccccc21 [Fmoc-PCA, 9-fluorenylmethyl p-chlorocarbanilate, reference compound]

time for evidence for initiation of the deblocking [7]: 0.033 h
SMILES: O=C(Nc1ccc(Cl)cc1)OCC1c2cc(Cl)ccc2Oc2ccc(Cl)cc21 [DC-Xmoc-PCA, 2,7-Dichloro-9-xanthenylmethyl p-Chlorocarbanilate]

time needed to complete the deblocking [7]: 3.5 h | Time for Complete Deblocking ([7]; TBD 50 eq., pyridine): 25 min | time for evidence for initiation of the deblocking [7]: 3.5 h
SMILES: O=C(Nc1ccc(Cl)cc1)OCC1c2ccccc2Oc2ccccc21 [Xmoc-PCA, 9-Xanthenylmethyl p-Chlorocarbanilate]

deblocking by / stability to piperidine [2]: stable to piperidine
SMILES: O=C(Nc1ccc(Cl)cc1)OCC1c2ccccc2Oc2ccccc21 [Xmoc]

Time for Complete Deblocking ([8]; ethanolamine 50 eq.): 240 min | Time for Complete Scavenging of Dibenzofulvene Analogs ([8]; morpholine 50 eq.): 13 hr | Time for Complete Deblocking [8, 9]: 600 min | Time for Complete Scavenging of Dibenzofulvene Analogs ([8]; piperidine 50 eq.): 84 min | Time for Complete Deblocking [8, 10]: 12 min | Time for Complete Deblocking ([8]; t-butylamine 50 eq.): 600 min
SMILES: CC(C)(C)c1ccc2c(c1)C(COC(=O)Nc1ccc(Cl)cc1)c1cc(C(C)(C)C)ccc1-2 [DT-Fmoc-PCA, 2,7-Di-tert-butyl-9-Fluorenylmethyl p-Chlorocarbanilate]
